Test results: PubChem BioAssay (NCI)
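Following 48 hours of exposure in 96-well plates, responses at five concentrations were used to interpolate endpoints linearly. The concentration for full growth arrest is given as TGI.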

Tests used:
Assay in all cases: NCI-60 cell line screen, 48 h
[1] = system: SK-MEL-2 melanoma
[2] = system: SK-MEL-28 melanoma
[3] = system: OVCAR-3 ovarian
[4] = system: 786-0 renal
[5] = system: IGROV1 ovarian
[6] = system: PC-3 prostate
[7] = system: SW-620 colon
[8] = system: HOP-92 NSCLC
[9] = system: LOX IMVI melanoma
[10] = system: MCF7 breast
[11] = system: MOLT-4 leukemia
[12] = system: HCC-2998 colon
[13] = system: SN12C renal
[14] = system: TK-10 renal
[15] = system: U251 CNS
[16] = system: CAKI-1 renal
[17] = system: OVCAR-8 ovarian
[18] = system: HT29 colon
[19] = system: SR leukemia
[20] = system: OVCAR-4 ovarian
[21] = system: HL-60(TB) leukemia
[22] = system: NCI-H23 lung
[23] = system: MDA-MB-435
[24] = system: COLO 205 colon
[25] = system: T-47D breast
[26] = system: RPMI-8226 leukemia
[27] = system: SF-539 CNS
[28] = system: MALME-3M melanoma
[29] = system: KM12 colon
[30] = system: EKVX NSCLC
[31] = system: SF-268 CNS
[32] = system: MDA-N
[33] = system: HCT-15 colon
[34] = system: SK-OV-3 ovarian
[35] = system: UACC-62 melanoma
[36] = system: SF-295 CNS
[37] = system: M14 melanoma
[38] = system: OVCAR-5 ovarian
[39] = system: K-562 leukemia
[40] = system: A498 renal
[41] = system: CCRF-CEM leukemia
[42] = system: MDA-MB-231 breast
[43] = system: SK-MEL-5 melanoma
[44] = system: SNB-75 CNS
[45] = system: NCI/ADR-RES ovarian
[46] = system: HCT-116 colon
[47] = system: DU-145 prostate
[48] = system: NCI-H226 lung
[49] = system: BT-549 breast
[50] = system: UACC-257 melanoma
[51] = system: RXF 393 renal
[52] = system: A549 NSCLC
[53] = system: HOP-62 NSCLC

Measured: TGI

CC1CCCc2c(CC3CC(=O)NC(=O)C3)nc(N)nc21 (stereo not drawn)
> 100 µM: [1] | [2] | [3] | [4] | [5] | [6] | [7] | [8] | [9] | [10] | [11] | [12] | [13] | [14] | [15] | [16] | [17] | [18] | [19] | [20] | [21] | [22] | [23] | [24] | [25] | [26] | [27] | [28] | [29] | [30] | [31] | [32] | [33] | [34] | [35] | [36] | [37] | [38] | [39] | [40] | [41] | [42] | [43] | [44] | [45] | [46] | [47] | [48] | [49] | [50] | [51] | [52] | [53]
